PubChem BioAssay (NCI)
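These data come from cells grown in 96-well plates and exposed to compound for 48 hours at five concentrations. GI50 marks 50% less growth. TGI is the concentration that stops growth completely.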

Experiments:
Assay in all cases: growth of human tumour cells (NCI), 48 h
SK-MEL-28 melanoma = test system: SK-MEL-28 melanoma
IGROV1 ovarian = test system: IGROV1 ovarian
SF-268 CNS = test system: SF-268 CNS
NCI-H522 lung = test system: NCI-H522 lung
MALME-3M melanoma = test system: MALME-3M melanoma
A498 renal = test system: A498 renal
CCRF-CEM leukemia = test system: CCRF-CEM leukemia
PC-3 prostate = test system: PC-3 prostate
UO-31 renal = test system: UO-31 renal
A549 NSCLC = test system: A549 NSCLC

| SMILES | TGI (SK-MEL-28 melanoma) [µM] | TGI (IGROV1 ovarian) [µM] | TGI (SF-268 CNS) [µM] | TGI (NCI-H522 lung) [µM] | TGI (MALME-3M melanoma) [µM] | TGI (A498 renal) [µM] | TGI (CCRF-CEM leukemia) [µM] | TGI (PC-3 prostate) [µM] | TGI (UO-31 renal) [µM] | TGI (A549 NSCLC) [µM] | GI50 (SK-MEL-28 melanoma) [µM] | GI50 (IGROV1 ovarian) [µM] | GI50 (MALME-3M melanoma) [µM] |
| --- | --- | --- | --- | --- | --- | --- | --- | --- | --- | --- | --- | --- | --- |
| C[C@H](CCC1=NCCN1)[C@H]1CC[C@H]2[C@@H]3CC[C@@H]4C[C@H](O)CC[C@]4(C)[C@H]3C[C@H](O)[C@]12C | 34.6 | 21.9 | 20.5 | 19.3 | 27.9 | 65.1 | 30.4 | 20.7 | 52.6 |  |  |  |  |
| O=c1[nH]c2ccccc2c2oc(-c3ccccc3)nc12 |  | > 100 | 71.3 | > 100 | > 100 | 59.5 | 52.6 | > 100 | > 100 | > 100 |  |  |  |
| CN(C)CC(NC(NCS)C(=O)NCCNc1ccc(NCCNC(=O)C(NCS)NC(CN(C)C)OCCl)c2c1C(=O)c1c(O)ccc(O)c1C2=O)OCCl (stereo not drawn) |  | 2.49 |  |  |  | 2.76 |  | 1.46 | 1.52 | 1.54 | 2.18 |  |  |
| CS(=O)(=O)O.[Ag] | 35.2 | 13.7 | 39.7 | 4.52 | 3.79 | 40 | 6.64 | 27.2 | 3.52 | 33.8 |  |  |  |
| CC(=O)NC1=C(NCc2ccc(Cl)cc2)C(=O)c2ccccc2C1=O | 11.5 | 49.6 | > 50 | 3.13 | 16.5 |  | 32.3 |  | 11.4 | > 50 |  |  |  |
| O=C(O)C1SCCS1 | > 100 | > 100 | > 100 |  | > 100 | > 100 | > 100 | > 100 | > 100 | > 100 |  |  |  |
| O=C(CCCn1ccnc1[N+](=O)[O-])NCCn1ccnc1[N+](=O)[O-] | > 100 | > 100 | > 100 | > 100 | > 100 |  | > 100 | > 100 | > 100 | > 100 |  |  |  |
| CN(c1ccccc1Cl)S(=O)(=O)c1ccccc1[N+](=O)[O-] | > 100 | > 100 | > 100 | > 100 | > 100 |  | > 100 | > 100 | > 100 | > 100 |  |  |  |
| CC1(C)[C@@H]2C[C@H]1C(Cc1cccc(C[C@H]3c4cc(-c5ccccn5)ncc4[C@H]4C[C@@H]3C4(C)C)c1)c1cc(-c3ccccn3)ncc12 (stereo partly drawn) | > 100 | > 100 | > 100 | > 56.7 | 44.9 | > 57 |  | > 47.2 | 6.15 | > 100 |  | 0.662 | 3.65 |
| COC1/C=C/C(C)C(C(C)C(OC)C(C)CCC(=O)C(C)C(C/C=C/N(C)C=O)OC)OC(=O)/C=C/C=C(\C)CC(OC)C(OC)C2=CC(=O)O[C@@H](C(C)C(OC)CC(OC)/C=C/C(C)C(O)C1)[C@H]2O (stereo partly drawn) | 0.878 |  | 0.407 | 0.286 | 0.493 | 0.233 |  | 0.35 | 0.267 | 0.781 |  |  |  |
| Cn1ccc(C(=O)NCCCCCNC(=O)c2ccn(C)c(=O)c2O)c(O)c1=O | > 100 |  | > 100 | > 100 | > 100 | > 100 | > 100 | > 100 | > 100 | > 100 |  |  |  |
| c1ccc(Nc2nnc(-c3nsc4ccccc34)o2)cc1 | > 100 | > 100 | > 100 |  |  |  | > 100 |  | > 100 | > 100 |  |  |  |
| COc1cc(C(SCc2ccccc2)SCc2ccccc2)ccc1O | > 10 | > 10 | > 10 | > 10 | > 10 | > 10 | > 10 | > 10 | > 10 |  |  |  |  |
| COc1ccc(C(O)/C(=C/n2ccnc2)c2ccccc2)cc1OC (stereo not drawn) | > 100 | > 100 | > 100 |  | > 100 | > 100 | > 100 |  | > 100 | > 100 |  |  |  |
| O=C(c1ccccc1)N1C(=S)N(c2ccc([N+](=O)[O-])cc2)C(=Nc2ccccc2)C1=Nc1ccccc1 | > 100 | > 100 | > 100 | > 100 | > 100 |  |  | > 100 | > 100 | > 100 |  |  |  |
| OCCO[P+]1(OCCO)n2c3ccc2C(c2ccccc2)=C2C=CC(=N2)C(c2ccccc2)=c2ccc(n21)=C(c1ccccc1)C1=NC(=C3c2ccccc2)C=C1 | 0.466 |  | 2.15 | 0.2 |  | 1.49 | 0.252 | 1.59 | 4.06 | 1.93 |  |  |  |
| CC(C)(C)OC(=O)NCC(=O)N1CCCN(C(=O)CNC(=O)OC(C)(C)C)CC1 | > 100 | > 100 | > 100 | > 100 | > 100 | > 100 |  | > 100 | > 100 | > 100 |  |  |  |
| O=C(OCc1ccccc1)N1c2cc([N+](=O)[O-])ccc2C(=O)N2CCC[C@H]2C1O (stereo partly drawn) | > 100 | > 100 | > 100 | > 100 |  | > 100 | > 100 | > 100 | > 100 | > 100 |  |  |  |
| c1ccc(C2=C(c3ccccc3)P(c3ccccc3)C2)cc1 (stereo not drawn) | > 100 | > 100 | > 100 | > 100 | > 100 | > 100 | > 100 | > 100 |  | > 100 |  |  |  |
| O=C(/C=C/c1ccccc1O)/C=C/c1ccccc1O | 3.67 | 3.31 | 0.905 |  | 4.27 | 4.18 |  | 3.38 | 3.59 | 6.38 |  |  |  |
| CCCCCCOc1ccc(NC2=C(Cl)C(=O)c3ncccc3C2=O)cc1 | 3.04 | 7.85 | 4.07 |  | 3.77 | > 10 | 5.96 | 3.97 | 2.72 | 8.96 |  |  |  |
| CCC(C)C1(O)OC2CC3(C)OC(=CC3=O)/C(C)=C\C3OC(=O)C1(C)C32 (stereo not drawn) | > 100 | 53.5 | > 100 | 14.3 |  | 81.9 | > 100 | > 100 | 47.4 | > 100 |  |  |  |
| COc1cc2c(cc1Cl)n([O-])c(C#N)c(N1CCN(c3ccc([N+](=O)[O-])cc3)CC1)[n+]2=O | > 100 | 8.29 | > 84 | 41.6 | 99.6 |  | > 100 | > 100 | > 100 | > 100 |  |  |  |
